Laboratory results from ChEMBL document CHEMBL1201862, “PubChem BioAssay data set” (2004).
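Interpolation was linear, between the two tested concentrations surrounding the appropriate level; five concentrations were tested over 48 hours in 96-well plates. GI50: concentration for 50% inhibition of growth.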 Active and inactive are the calls of the source. Cut-off read from the data, not from the text of the source: active = GI50 up to about 1.1 µM and inactive = higher.

Legend:
Test in all cases: growth of human tumour cells (NCI), 48 h
[1] = tested on: Hs-578T
[2] = tested on: M14
[3] = tested on: OVCAR-3
[4] = tested on: PC-3
[5] = tested on: NCI-H522
[6] = tested on: A549
[7] = tested on: CAKI-1
[8] = tested on: T47D
[9] = tested on: DU-145
[10] = tested on: ACHN
[11] = tested on: HCC 2998
[12] = tested on: SK-MEL-2
[13] = tested on: TK-10
[14] = tested on: UACC-62
[15] = tested on: EKVX
[16] = tested on: HCT-116
[17] = tested on: NCI/ADR-RES
[18] = tested on: U-251
[19] = tested on: UO-31
[20] = tested on: 786-0

Measured: GI50

O=C1NC(N2CCCC(CO)C2)=N/C1=C\c1ccccc1 (stereo not given)
inactive: [1] > 100 µM | [2] > 100 µM | [3] > 100 µM | [4] > 100 µM | [5] > 100 µM | [6] > 100 µM | [7] > 100 µM | [8] > 100 µM | [9] > 100 µM | [10] > 100 µM | [11] > 100 µM | [12] > 100 µM | [13] > 100 µM | [14] > 100 µM | [15] > 100 µM | [16] > 100 µM | [17] > 100 µM | [18] > 100 µM | [19] > 100 µM | [20] > 100 µM

COC1OC(=O)C(OC)C(OC)C1OC (stereo not given)
inactive: [1] > 100 µM | [2] > 100 µM | [3] > 100 µM | [4] > 100 µM | [5] > 100 µM | [6] > 100 µM | [7] > 100 µM | [8] > 100 µM | [9] > 100 µM | [10] > 100 µM | [11] > 100 µM | [12] > 100 µM | [13] > 100 µM | [14] > 100 µM | [15] > 100 µM | [16] > 100 µM | [17] > 100 µM | [18] > 100 µM | [19] > 100 µM | [20] > 100 µM

O=Cc1ccc(-c2cc(C=O)c(-c3cccs3)[nH]2)s1
inactive: [1] 23.4 µM | [2] 24 µM | [3] 18.5 µM | [4] 35.6 µM | [5] 10.3 µM | [6] 24.8 µM | [7] 9.4 µM | [8] 8.85 µM | [9] 42.6 µM | [10] 41.4 µM | [11] 16.6 µM | [12] 46.2 µM | [13] 24.4 µM | [14] 27.5 µM | [15] 40 µM | [16] 22.8 µM | [17] 26.7 µM | [18] 18.7 µM | [19] 26.6 µM | [20] 48.4 µM
